Photoluminescence quantum yield data for 30 compounds are collected here from the Deep4Chem optical property database.

The nature of this data set: photoluminescence quantum yield (fraction); solvent given as SMILES.
The mark [1] stands for this setting: in c1cc(-c2cccc(-n3c4ccccc4c4ccccc43)c2)cc(-n2c3ccccc3c3ccccc32)c1.

Regarding `CN(C)c1cc(C#N)c(N(C)C)c(C#N)c1`, the photoluminescence quantum yield by setting is: (in C1CCCCC1) 0.37; (in C1CCOC1) 0.54; (in C1COCCO1) 0.55; (in CC1COC(=O)O1) 0.58; (in CC#N) 0.53; (in CC(C)=O) 0.51. Moreover, the photoluminescence quantum yield stood at 0.39 (in CC(C)OC(C)C); 0.47 (in CCC#N); 0.37 (in CCC(C)C); 0.38 (in CCCCCC); 0.58 (in CCCCCCCCO); 0.46 (in CCCCCOCCCCC). Besides, the photoluminescence quantum yield reads like this: (in CCCCOC(C)=O) 0.52; (in CCCCOCCCC) 0.45; (in CCCOCCC) 0.55; (in CCO) 0.51; (in CCOC(C)=O) 0.49; (in CCOCC) 0.46. For the same compound, the photoluminescence quantum yield by setting is: (in CN(C)C=O) 0.57; (in CO) 0.52; (in CS(C)=O) 0.55; (in Cc1ccccc1) 0.55; (in ClCCCl) 0.52; (in ClCCl) 0.57. Further, the photoluminescence quantum yield runs as follows: (in N#Cc1ccccc1) 0.5; (in O) 0.47; (in OCC(O)CO) 0.54; (in c1ccccc1) 0.57.

With `CC1=[N+]2C(=C(c3ccc(-c4c5ccccc5c(-c5ccccc5)c5ccccc45)cc3)c3ccc(C)n3[B-]2(F)F)C=C1`, the photoluminescence quantum yield is, setting by setting: (in CC#N) 0.002; (in CCCCCC) 0.204; (in CCO) 0.037; (in CN(C)C=O) 0.002; (in Cc1ccccc1) 0.259; (in ClCCl) 0.027.

`CN(C)c1ccc(C2=[N+]3C(=Nc4c(-c5ccc(O)cc5)cc(-c5ccc(N(C)C)cc5)n4[B-]3(F)F)C(c3ccc(O)cc3)=C2)cc1` showed a photoluminescence quantum yield (in C1CCOC1) of 0.04 and a photoluminescence quantum yield (in Cc1ccccc1) of 0.1.

With `CCCCCCCCCCCCN1C(=O)c2ccc3c4ccc5c6c(ccc(c7ccc(c2c37)C1=O)c64)C(=O)N(CCCCCCCCCCCC)C5=O`, where the note is “in CN(C)C=O”, the photoluminescence quantum yield amounted to 1.

Turning to `CCC(C)(C)c1ccc(-c2ccc3c(c2)C(CCOC)(CCOC)c2cc(C(C)(C)CC)ccc2-3)cc1`, where the note is “in C1CCCCC1”, the photoluminescence quantum yield amounted to 0.71.

As for `N#Cc1ccc(N2c3ccccc3C(c3ccccc3)(c3ccccc3)c3ccccc32)cc1`, the photoluminescence quantum yield (in Cc1ccccc1) came to 0.22.

Where the note is “in ClCCl”, `CCOC(=O)/N=c1/oc2ccc(OC)cc2cc1C#N` displayed a photoluminescence quantum yield of 0.047.

In the case of `CN1C(=O)c2cccc3c(-n4c5ccccc5c5ccccc54)ccc(c23)C1=O`, the photoluminescence quantum yield (in C1CCOC1) stood at 0.031, the photoluminescence quantum yield (in CCCCCC) worked out at 0.895, the photoluminescence quantum yield (in ClC(Cl)Cl) was found to be 0.204 and the photoluminescence quantum yield (in ClCCl) turned out to be 0.029.

On to `N#Cc1cc(-n2c3ccccc3c3ccccc32)c(C#N)cc1-n1c2ccccc2c2ccccc21`, for which the photoluminescence quantum yield came to 0.87 under setting [1] and 0.85 (in c1ccc2c(c1)c1ccccc1n2P1(n2c3ccccc3c3ccccc32)=NP(n2c3ccccc3c3ccccc32)(n2c3ccccc3c3ccccc32)=NP(n2c3ccccc3c3ccccc32)(n2c3ccccc3c3ccccc32)=N1).

With `CCOC(=O)/N=c1/oc2cc(N(CC)CC)ccc2cc1C#N`, the photoluminescence quantum yield (in ClCCl) was determined as 0.85.

On to `COc1ccc(/C=C/C2=CC(/C=C/c3ccc(OC)cc3)=[N+]3C2=C(c2ccc(-c4ccc5ccccc5n4)s2)c2c(/C=C/c4ccc(OC)cc4)cc(/C=C/c4ccc(OC)cc4)n2[B-]3(F)F)cc1`, for which the photoluminescence quantum yield (in C1COCCO1) was found to be 0.36.

Regarding `CC1(C)c2ccccc2N(c2ccc(-c3nc(-c4ccccc4)cc(-c4ccccc4)n3)cc2)c2ccccc21`, the photoluminescence quantum yield (in CC#N) stood at 0.018, the photoluminescence quantum yield (in Cc1ccccc1) turned out to be 0.339, the photoluminescence quantum yield (in ClCCl) amounted to 0.632 and the photoluminescence quantum yield (in O=P(c1ccccc1)(c1ccccc1)c1ccccc1Oc1ccccc1P(=O)(c1ccccc1)c1ccccc1) was found to be 0.61.

Consider `c1ccc(N(c2ccccc2)c2ccc(-c3ncnc4ccccc34)cc2)cc1`, for which, where the note is “in ClCCl”, the photoluminescence quantum yield was determined as 0.93.

For the compound `COc1cc(C=O)cc(-c2[nH]c(=O)n3c2-c2ccccc2C3=O)c1O`, the photoluminescence quantum yield reads like this: (in CC#N) 0.33; (in CO) 0.04; (in ClCCl) 0.93.

Compound `CC(C)[Si](C#Cc1c2cc3ccccc3cc2c(C#Cc2ccc(C(F)(F)F)cc2)c2cc3ccccc3cc12)(C(C)C)C(C)C` showed a photoluminescence quantum yield (in ClCCl) of 0.06.

In turn, `Cn1ccc(-n2cncn2)nc1=O` came in with a photoluminescence quantum yield (in O) of 0.114.

Turning to `COC(=O)c1cccc2c1C#Cc1c(NC(C)=O)cccc1OCCCO2`, the photoluminescence quantum yield reads like this: (in CC#N) 0.29; (in ClCCl) 0.33.

In the case of `CCc1cccc(CC)c1-c1c2ccccc2c(C#Cc2ccccc2)c2cc3ccccc3cc12`, where the note is “in ClCCl”, the photoluminescence quantum yield came out at 0.57.

`CC1(C)c2ccccc2N(c2ccc(-c3cccc(C#N)c3)cc2)c2ccccc21`: the photoluminescence quantum yield (in Cc1ccccc1) stood at 0.112 and the photoluminescence quantum yield (in N#Cc1ccc2c(c1)c1ccccc1n2-c1cccc(-n2c3ccccc3c3ccccc32)c1) came out at 0.15.

As for `CC1(C)c2ccccc2N(c2ccc(-c3cc(C#N)c(C#N)cc3-c3ccc(N4c5ccccc5C(C)(C)c5ccccc54)cc3)cc2)c2ccccc21`, the photoluminescence quantum yield is, setting by setting: (in Cc1ccccc1) 0.59; under setting [1], 0.86.

The compound `CCOC(=O)c1ccc(O)c(-c2[nH]c(=O)n3c2-c2ccccc2C3=O)c1` displayed a photoluminescence quantum yield (in CC#N) of 0.49, a photoluminescence quantum yield (in CO) of 0.4 and a photoluminescence quantum yield (in ClCCl) of 0.59.

The compound `O=S(=O)(c1ccc(-c2ccc3c(c2)c2ccccc2n3-c2ccccc2)cc1)c1ccc(-c2ccc3c(c2)c2ccccc2n3-c2ccccc2)cc1` yielded a photoluminescence quantum yield (in Cc1ccccc1) of 1.

Take `N#C/C(=C\c1ccc(C#N)cc1)c1nc(-c2ccc(Cl)cc2)c(-c2ccccc2)s1`: the photoluminescence quantum yield (in CC#N) is 0.114.

In turn, `COc1ccc(/C=C/c2cc(/C=C/c3ccc(OC)cc3)nc(/C=C/c3ccc(OC)cc3)n2)cc1` returned a photoluminescence quantum yield (in ClCCl) of 0.15.

In the case of `C(#Cc1ccc(N(c2ccc(C#Cc3ccc(-c4cc(-c5ccccc5)nc(-c5ccccc5)c4)cc3)cc2)c2ccc(C#Cc3ccc(-c4cc(-c5ccccc5)nc(-c5ccccc5)c4)cc3)cc2)cc1)c1ccc(-c2cc(-c3ccccc3)nc(-c3ccccc3)c2)cc1`, the photoluminescence quantum yield stood at 0.12 (in C1CCOC1) and 0.16 (in Cc1ccccc1).

In turn, `C(=C\c1cc(-c2ccccc2)c(/C=C/c2ccc(N(c3ccccc3)c3ccccc3)cc2)cc1-c1ccccc1)/c1ccc(N(c2ccccc2)c2ccccc2)cc1` registered a photoluminescence quantum yield (in ClCCl) of 0.8.

In the case of `CCOC(=O)C(C(=O)OCC)C1=[N+]2C(=C(c3ccc(C)cc3)c3ccc(Cl)n3[B-]2(F)F)C=C1`, the photoluminescence quantum yield by setting is: (in C1CCCCC1) 0.46; (in C1CCOC1) 0.48; (in CCOC(C)=O) 0.4; (in CO) 0.28; (in Cc1ccccc1) 0.79; (in ClC(Cl)Cl) 0.52.

In the case of `CCCCC(CC)CN1C(=O)c2cccc3c(C#Cc4ccc(N(c5ccccc5)c5ccccc5)cc4)ccc(c23)C1=O` (stereo not given), the photoluminescence quantum yield (in C1CCCCC1) is 0.66; the photoluminescence quantum yield (in C1CCOC1) turned out to be 0.62; the photoluminescence quantum yield (in CC#N) came to 0.026; the photoluminescence quantum yield (in Cc1ccccc1) came out at 0.89; the photoluminescence quantum yield (in ClC(Cl)Cl) is 0.51.

In the case of `c1ccc2c(-c3cc(-c4nccs4)nc(-c4nccs4)c3)cccc2c1`, the photoluminescence quantum yield reads like this: (in CC#N) 0.33; (in CCCCCC) 0.411; (in CO) 0.207; (in ClC(Cl)Cl) 0.439.

For `CN(C)c1ccc(-c2nc(-c3ccc(N(C)C)cc3)c3ccccc3n2)cc1`, the photoluminescence quantum yield (in ClCCl) was determined as 0.8.
